Patent publication US20150111896A1, “HEMATOPOIETIC PROTECTION AGAINST CHEMOTHERAPEUTIC COMPOUNDS USING SELECTIVE CYCLIN-DEPENDENT KINASE 4/6 INHIBITORS” (The University of North Carolina at Chapel Hill, priority 2008, published 2015)
Entries after “also recorded” stand apart in the source; their conditions may differ.

Key:
[1] = test system: human RB-null melanoma cells (A2058); test: Cell proliferation assay (WST-1 or CellTiter-Glo) after chemotherapeutic; conditions: for protection from chemotherapy-induced cytotoxicity (cell proliferation assays): A2058 (CDK4/6-independent), pretreatment prior to carboplatin, etoposide or doxorubicin; for chemoprotective effects against doxorubicin (cell viability, CellTiter-Glo): A2058, 16 hours pretreatment, DOX 370 nM 8 hours, viability after 7 days
Experimental: (§4) In some embodiments, cell viability is assessed by performing a assay using 2-(4-iodophenyl)-3-(4-nitrophenyl)-5-(2,4-disulfophenyl)-2H-tetrazolium monosodium salt (WST-1), such as described further hereinbelow. In the WST-1 assay, WST-1 is cleaved by a mitochondrial reductase present in viable cells to form a colored product (i.e., formazan) that can be detected by measuring absorbance at a particular wavelength (e.g., 420-480 nm). […] The CellTiter-Glo® assay (CTG assay; Promega, Madison, Wis., United States of America) measures cell viability by measuring ATP concentration in cell lysate.
(§5) Cell lines: Telomerized human diploid fibroblast (tHDF) cells (HS68) were cultured in Dulbecco's Modified Eagle Medium (DMEM) +10% fetal bovine serum (FBS) with any additional compounds. The same conditions were used for A2058 and WM2664, human melanoma cell lines with known RB-pathway mutations: A2058 is RB-null, whereas WM2664 lacks INK4a/ARF. Thus, A2058 cells are CDK4/6-independent, while WM2664 cells are CDK4/6-dependent. Cells were cultured in DMEM+10% FBS.
(§6) Cell proliferation assays: Cell proliferation assays were performed by seeding 1×10^3 cells per well in a 96-well tissue culture plate in 100 μL of growth medium. Cells were treated as indicated with compound from Table 1 and doxorubicin, etoposide or carboplatin. Following treatment, cells were allowed to recover for 7 days in normal growth medium. At the end of the recovery period, cell number was quantified using the VVST-1 cell proliferation assay (TaKaRa Bio USA, Madison, Wis., United States of America) or the CellTiter-Glo® assay (CTG; Promega, Madison, Wis., United States of America). Data is presented as absorbance at 450 nm for the WST assays or Relative Light Units (RLU) for the CTG assays.

[2] = test system: human RB-null melanoma cells (A2058); test: Cell cycle analysis (BrdU and propidium iodide, flow cytometry); assay type: cell-based; conditions: A2058 (RB-null, CDK4/6-independent), 24 hours treatment
Experimental: (§1) Cells were cultured in DMEM+10% FBS.
(§2) Cell cycle analysis: Cell cycle analysis was performed using BrdU and propidium iodide (both from BD Biosciences Pharmigen, San Jose, Calif., United States of America) following the manufacturer's protocol. Cells were treated for 24 hours with a test compound at a desired dose prior to 15 minutes BrdU pulse, cell harvesting, fixation, staining, and analysis by flow cytometry.
(§3) Histograms of dose-response curves of PD332991 and 2BrIC in HS68, WM2664 and A2058 cells were analyzed using Mod-Fit™ software from Verity Software House (Topsham, Me., United States of America).

[3] = test system: telomerized human diploid fibroblast (tHDF) cells (HS68); test: as above; assay type: cell-based; conditions: HS68 (CDK4/6-dependent), 24 hours treatment
Experimental: as §1, §2, §3

[4] = test system: human melanoma cells lacking INK4a/ARF (WM2664); test: as above; assay type: cell-based; conditions: WM2664 (CDK4/6-dependent), 24 hours treatment
Experimental: as §1, §2, §3

[5] = test system: human melanoma cells lacking INK4a/ARF (WM2664); test: Cell proliferation assay (WST-1 or CellTiter-Glo) after chemotherapeutic; conditions: for protection from chemotherapy-induced cytotoxicity (cell proliferation assays): WM2664 (CDK4/6-dependent), pretreatment prior to carboplatin, etoposide or doxorubicin; for chemoprotective effects against doxorubicin (cell viability, CellTiter-Glo) / protection from doxorubicin-induced cytotoxicity (cell viability, WST-1 assay): WM2664; for chemoprotective effects against doxorubicin (cell viability, CellTiter-Glo): 16 hours pretreatment, DOX 122 nM 8 hours, viability after 7 days; for protection from doxorubicin-induced cytotoxicity (cell viability, WST-1 assay): absorbance at 450 nm, 7 days recovery
Experimental: as §4, §5, §6

[6] = test system: telomerized human diploid fibroblast (tHDF) cells (HS68); test: as above; conditions: for protection from chemotherapy-induced cytotoxicity (cell proliferation assays): HS68 (CDK4/6-dependent), pretreatment prior to carboplatin, etoposide or doxorubicin; for chemoprotective effects against doxorubicin (cell viability, CellTiter-Glo) / protection from doxorubicin-induced cytotoxicity (cell viability, WST-1 assay): HS68; for chemoprotective effects against doxorubicin (cell viability, CellTiter-Glo): 16 hours pretreatment, DOX 370 nM 8 hours, viability after 7 days; for protection from doxorubicin-induced cytotoxicity (cell viability, WST-1 assay): absorbance at 450 nm, 7 days recovery
Experimental: as §4, §5, §6

| Structure (SMILES) | protection from chemotherapy-induced cytotoxicity (cell proliferation assays) [1] | chemoprotective effects against doxorubicin (cell viability, CellTiter-Glo) [1] | cell cycle effect [2] | cell cycle effect [3] | cell cycle effect [4] | protection from chemotherapy-induced cytotoxicity (cell proliferation assays) [5] | chemoprotective effects against doxorubicin (cell viability, CellTiter-Glo) [5] | protection from chemotherapy-induced cytotoxicity (cell proliferation assays) [6] | chemoprotective effects against doxorubicin (cell viability, CellTiter-Glo) [6] | protection from doxorubicin-induced cytotoxicity (cell viability, WST-1 assay) [5] | protection from doxorubicin-induced cytotoxicity (cell viability, WST-1 assay) [6] |
| --- | --- | --- | --- | --- | --- | --- | --- | --- | --- | --- | --- |
| COc1ccc(F)c(F)c1C(=O)c1cnc(NC2CCN(S(C)(=O)=O)CC2)nc1N [Compound 7] | failed to protect | absence of chemoprotective effects | did not induce a clean G1 arrest | did not induce a clean G1 arrest; also recorded: does not induce G1 arrest | did not induce a clean G1 arrest; also recorded: does not induce G1 arrest | failed to protect | absence of chemoprotective effects | failed to protect | absence of chemoprotective effects |  |  |
| CN1CCN(c2ccc(Nc3ncc4cnn(C5CCCCC5)c4n3)cc2)CC1 [Compound 8] |  |  | did not induce a clean G1 arrest | did not induce a clean G1 arrest | did not induce a clean G1 arrest | failed to protect |  | failed to protect |  | inability | inability |
| CN1CCN(Cc2ccc(Nc3ncc4cnn(C5CCCCC5)c4n3)cc2)CC1 [Compound 9] |  |  | did not induce a clean G1 arrest | did not induce a clean G1 arrest | did not induce a clean G1 arrest | failed to protect |  | failed to protect |  | inability | inability |
| CN1CCN(C(=O)c2ccc(Nc3ncc4cnn(C5CCCCC5)c4n3)cc2)CC1 [Compound 11] |  |  | did not induce a clean G1 arrest | did not induce a clean G1 arrest | did not induce a clean G1 arrest | failed to protect |  | failed to protect |  | inability | inability |
| O=c1c(-c2ccc(O)cc2)coc2cc(O)cc(O)c12 [Genistein] | failed to protect | absence of chemoprotective effects | did not induce a clean G1 arrest | did not induce a clean G1 arrest | did not induce a clean G1 arrest | failed to protect | absence of chemoprotective effects | failed to protect | absence of chemoprotective effects |  |  |
| CN1CC[C@H](c2c(O)cc(O)c3c(=O)cc(-c4ccccc4Cl)oc23)[C@H](O)C1 [flavopiridol] | failed to protect | absence of chemoprotective effects | did not induce a clean G1 arrest | did not induce a clean G1 arrest; also recorded: does not induce G1 arrest | did not induce a clean G1 arrest; also recorded: does not induce G1 arrest | failed to protect | absence of chemoprotective effects | failed to protect | absence of chemoprotective effects |  |  |
